From patent publication US9408891B2, “Methods of using gelsolin to treat or prevent bacterial sepsis” (priority 2003, dated 2016)
Entries after “also recorded” stand apart in the source; their conditions may differ. Values belong to the compound of their own block, whether it stands above or below them.

Key:
[1] = biological target: T1, pyrene-labeled SEQ ID No:1 (gelsolin residues 160-169) (Homo sapiens, UniProt P06396); experiment: Pyrene excimer fluorescence of pyrene-labeled SEQ ID No:1 after adding lipids; assay type: binding; conditions: 2 μM pyrene peptide
T1 construct: made in house; host or cells: solid phase peptide synthesis
Experimental: (§1) Therefore, to determine changes of gelsolin OD at 280 nm, different amounts of LPS, LPA and PS were added to recombinant human gelsolin (rhGLS) solutions and OD emission spectra were recorded using spectrophotometer Genesys 6 (Thermo-Spectronic, USA).
Interaction of LPS and gelsolin was examined using rhodamine B- and pyrene-labeled SEQ ID No:1 (QRLFQVKGRR). The effect of LPS on gelsolin was determined in terms of the rhodamine-B fluorescent changes of PBP10 peptide in the presence of different lipids (FIG. 1C); and the fluorescence emission spectra of pyrene-labeled SEQ ID No:1 (2 μM) in the presence of LPS from Escherichia coli (1.2 μM), PIP2 (0.82 μM) and LPA (0.82 μM) (FIG. 1D) The results using the pyrene-derivatized gelsolin peptide confirmed the LPS induced clustering of the peptide with resulting excimer fluorescence of the pyrene group, which was evident as a large increase in fluorescence emission at 480 nm.

[2] = biological target: T2, recombinant human gelsolin (rhGLS) (Homo sapiens, UniProt P06396); experiment: Change of gelsolin OD at 280 nm after adding lipids; assay type: binding; conditions: OD 280 nm
T2 construct: purchased Biogen IDEC, Inc., Cambridge, Mass; host or cells: E. coli
T2 sequence (P06396 28-782): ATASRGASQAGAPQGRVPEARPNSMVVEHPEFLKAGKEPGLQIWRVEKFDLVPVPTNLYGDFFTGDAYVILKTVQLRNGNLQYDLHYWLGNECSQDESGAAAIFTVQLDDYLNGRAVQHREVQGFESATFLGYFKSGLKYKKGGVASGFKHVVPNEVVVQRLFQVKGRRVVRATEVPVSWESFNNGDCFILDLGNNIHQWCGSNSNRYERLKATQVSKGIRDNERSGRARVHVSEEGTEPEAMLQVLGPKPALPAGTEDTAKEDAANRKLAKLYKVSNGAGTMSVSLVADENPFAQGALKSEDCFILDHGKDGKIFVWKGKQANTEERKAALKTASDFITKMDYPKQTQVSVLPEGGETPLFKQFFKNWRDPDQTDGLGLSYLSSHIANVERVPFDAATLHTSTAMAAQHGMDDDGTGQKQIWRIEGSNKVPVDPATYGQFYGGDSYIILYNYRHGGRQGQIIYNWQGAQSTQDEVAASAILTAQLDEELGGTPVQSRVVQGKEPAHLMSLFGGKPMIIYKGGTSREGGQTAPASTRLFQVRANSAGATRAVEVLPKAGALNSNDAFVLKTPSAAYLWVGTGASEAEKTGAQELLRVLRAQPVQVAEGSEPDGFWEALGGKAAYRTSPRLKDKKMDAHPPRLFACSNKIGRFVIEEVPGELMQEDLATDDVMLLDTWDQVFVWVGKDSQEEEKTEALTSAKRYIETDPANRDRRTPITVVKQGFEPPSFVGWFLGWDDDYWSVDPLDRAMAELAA
Experimental: as §1

[3] = biological target: T2, recombinant human gelsolin (rhGLS); experiment: Actin filament severing activity of purified gelsolin (pyrene F-actin depolymerization); assay type: biochemical; conditions: molar basis comparison
Experimental: To determine gelsolin's severing activity, rates of fluorescence decrease were evaluated during depolymerization. Monomeric G-actin was prepared from an acetone powder of rabbit skeletal muscle according to previously published methods (Spudich et al., J. Biol. Chem […]). The non-polymerizing solution contained 2 mM TRIS, 0.2 mM CaCl2, 0.5 mM ATP (adenosine triphosphate), 0.2 mM DTT (dithiothreitol) pH 7.4. Actin was polymerized by adding 150 mM KCl and 2 mM MgCl2 to the G-actin solutions and incubating for 1 hour at room temperature.
For F-actin severing assays, in general, a small volume (typically 5 μl) of the gelsolin composition is added to a similar volume of pyrene-labeled F-actin at a concentration adjusted to provide an actin:gelsolin ratio of approximately 10:1 (typically 1 μM gelsolin and 10 μM actin). This mixture is the diluted to 0.5 μM in a larger volume of F-actin buffer, and the filament severing efficiency is calculated from the initial slope of the fluorescence change. This reflects the rate of depolymerization that, in turn, is proportional to the number of cuts made by gelsolin. The LPS/gelsolin reaction can be done under any ionic condition, and the addition to F-actin requires the presence of […] Ca^2+ to activate the gelsolin. […] The actin nucleation reaction is similar except that in the latter case, the gelsolin/LPS mixture is added to a more dilute solution of G-actin (typically, 1 or 2 μM) in low ionic strength buffer followed immediately by addition of 150 mM KCI and 2 mM MgCl2 to initiate polymerization.
As shown, recombinant human gelsolin (rhGLS) (FIG. 4A) and blood serum (FIG. 4B) severing activity was measured in 0.4 μM pyrene-labeled F-actin samples (polymerized with 50% pyrene-labeled G-actin), after adding gelsolin (16 nM)/serum (2.5 μl), or their combination with one of the following: LPS (from different species), PIP2 (phosphatidyl-inositol-4,5-bisphosphate), LPA (lysophosphatidic acid), lipid A (the LPS derivative lacking polysaccharide) or PS (phosphatidylserine). The fluorescence intensity of F-pyrene actin was then monitored for 10 minutes, and the severing activity was calculated based on decreasing fluorescence. Severing activity was determined from a decrease in rate of fluorescence during depolymerization, and the depolymerization rate was calculated from the slope of the early decrease in fluorescence.

[4] = test system: endotoxemic C57BL/6 mice (25 mg/kg LPS E. coli 055:B5 i.p.); experiment: Mortality study of mice challenged with lethal E. coli LPS and treated with GSN, BSA or saline; assay type: in vivo, mouse
Experimental: To study the effect on mortality, animals are injected i.p. with 25 mg/kg LPS (E. coli 055:B5, Sigma) and each mouse is randomly selected to receive one of the following three treatments: 1) GSN (containing: 8 mg of recombinant human plasma gelsolin (Biogen-IDEC, Inc) containing 1 mM Ca dissolved in 400 μl of 0.15 M NaCl (saline); or 2) BSA (containing: 8 mg of bovine albumin (Serologicals Proteins, Inc, Kankakee, Ill.) containing 1 mM Ca dissolved in 400 μl of saline, or 3) saline (containing only 400 μl saline). The GSN (gelsolin), BSA or saline solutions are administered subcutaneously at the dorsal surface of each animal immediately after LPS instillation, and then repeated at 24, 48, and 72 hours.
There are 9 mice in the saline group and 8 mice each in the GSN group and the BSA group. Animals are monitored frequently, and mortality is recorded and presented at an interval of days. Animal mortality study data are presented as Kaplan-Meier curves and log-rank test is used to analyze treatment impact on animal mortality. Ap-value less than 0.05 is considered significant.
To measure gelsolin in vivo, a nucleation assay for plasma gelsolin is performed as follows: the collected mouse plasma is diluted 1:5 in Buffer B (0.1 M KCI, 0.2 mM MgCl2, 1 mM EGTA (ethyleneglycol-bis(2-aminoethyl) N,N,N′,N′,-tetraacetic acid), 0.5 mM ATP, 0.5 mM β-mercaptoethanol, 10 mM Tris-HCl buffer, pH 7.4). From the diluted plasma sample, 5 μl is added to 280 μl Buffer B supplemented with 1.5 mm […] and 0.4 μM phallacidin in 6×50 mm borosilicate culture tubes. The actin polymerization reaction is initiated by adding 15 μl 20 μM pyrene-actin in Buffer A (0.5 mM ATP, 0.5 mM β-mercaptoethanol, 0.2 mM CaCl2 […] buffer, pH 7.4). Polymerization is monitored for 200 seconds in a spectrofluorimeter at excitation and emission wavelengths of 366 and 386 nm respectively. Gelsolin concentrations are estimated from a standard curve using recombinant human plasma gelsolin.

[5] = test system: LPS-binding protein (LBP); experiment: Binding of 125I-LBP to gelsolin-coated wells
Experimental: To determine competition between gelsolin and LPS-binding proteins (LPB), a high affinity carrier for LPS, […]), washed and preincubated with different amount of recombinant human gelsolin (0-2 ng/well) in […] (0.5 mg/ml) containing RPMI. RPMI medium refers to Roswell Park Memorial Institute medium, typically used to culture human lymphoid cells. Then, 10 μl of ^125I-LPB (6×10^4 cpm) were added, and the plates were incubated for 90 minutes at 37° C., then washed six times with RPMI. After that, the bound radioactivity was measured.

[6] = test system: human neutrophils / human aortic endothelial cells (HAEC); experiment: Neutrophil adhesion to LTA-stimulated HAEC; assay type: cell-based; conditions: gelsolin 2 μM added along with LTA 10 μg/ml
Source text: To investigate whether gelsolin can prevent gram-positive bacterial inflammation, the effect of LTA-mediated activation of human neutrophils was examined. Neutrophils were selected because their adhesion to human aorta endothelial cells (HAEC) is a hallmark of inflammation.
Neutrophils were isolated from human blood using the endotoxin-free Lympholyte-poly kit (Cedarlane, Ontario, Canada). The isolated neutrophil cells were resuspended in RPMI media. […] To quantify the adhesion, the neutrophils were labeled with calcein-AM (5 μM for 30 minutes at 37° C.).

[7] = test system: human aortic endothelial cells (HAEC); experiment: LPS-induced actin cytoskeleton disassembly, phalloidin staining, endothelial cells; assay type: cell-based; conditions: 2 μM (10 μg/ml) LPS preincubated with 1.8 μM (0.16 mg/ml) gelsolin, 10 min, listed as plasma gelsolin
Source text: (§2) In light of the findings in the previous Examples, and using the materials prepared in above, the effect of the gelsolin binding by LPS was studied to determine the effect on cellular responses in vitro. Cell cultures of human aortic endothelial cells (HAEC) and rat primary astrocytes were used to evaluate the effect of LPS on actin. Both of these cell types have mCD14 (membrane bound C14) and TLR LPS receptors (Faure, et al., J. Biol. Chem. 275:11058-11063 (2000); Bsibsi, et al., J. Neuropathol. Exp. Neurol. 61:1013-1021 (2002); Bowman, et al., Glia 43:281-291 (2003)).
HAECs (primary human aortic endothelial cells) (ATCC, Rockville, Md. or Clonetics, San Diego, Calif.), will grow to confluence through passages 5-9 in endothelial cell growth medium supplemented with 2% fetal bovine serum, 10 μg/liter human recombinant epidermal growth factor, 1 mg/liter hydrocortisone, 50 μg/ml gentamicin, 50 ng/ml amphotericin-B, in a 37° C. humidified atmosphere of 95% air:5% C02.
(§3) HAECs and astrocytes cultures were incubated for 10 minutes in medium containing 10 μg/ml LPS alone, or LPS that had been pre-incubated with 0.16 mg/ml of human gelsolin. […] Location of transcription factor nuclear factor-kappaB (NF-κB) was observed using a monoclonal antibody to NF-κB (Molecular Probes), and cell nuclei were detected by counter-staining with 4′, 6-diamidino-2-phenylindole dihydrochloride (DAPI) (Sigma).

[8] = test system: NF-κB translocation in rat primary astrocytes; experiment: NF-κB translocation to the nucleus in astrocytes; assay type: cell-based; conditions: LPS preincubated with 1.8 μM gelsolin, 2 hour incubation
Experimental: Rat primary astrocytes were obtained from prenatal rats and maintained for 14 days in culture before use. Embryos (E17-E19) were removed by caesarian section from a Sprague-Dawley rat and the hippocampi were surgically removed. The tissue was digested in trypsin/DNAse at 37° C., centrifuged (1000×5 min) and filtered to derive suspensions from each pup. Cells were grown in an incubator at 37° C. and 5% CO2 in DMEM (Dulbecco's Modified Eagle's Medium; BioWhittaker/Cambrex BioScience, East Rutherford, N.J.), supplemented with Ham's F12 (Sigma-Aldrich, St. Louis, Mo.) and 5% fetal bovine serum (FBS) (Hyclone, Logan, Utah) for 7 days, followed by an additional 7 days in Neurobasal medium (Gibco, Grand Island, N.Y.) also supplemented with 5% FBS, 2 mM l-glutamine, 50 μg/ml streptomycin and 50 U/ml penicillin. In each experiment, the medium was changed to serum-free at 6-12 hours prior to addition of LPS, TNF-α, or gelsolin.
HAECs and astrocytes cultures were incubated for 10 minutes in medium containing 10 μg/ml LPS alone, or LPS that had been pre-incubated with 0.16 mg/ml of human gelsolin. Cultures were fixed with ice-cold methanol and immunostained for F-actin with fluorescein isothiocyanate (FITC)-labeled phalloidin (Molecular Probes, Eugene, Oreg.). In astrocyte cultures, NF-κB translocation was manipulated by a 2 hour incubation in serum-free medium containing one of the following: 10 ng/ml TNF-α, 10 μg/ml LPS alone, or LPS that had been preincubated with 0.16 mg/ml human gelsolin. Location of transcription factor nuclear factor-kappaB (NF-κB) was observed using a monoclonal antibody to NF-κB (Molecular Probes), and cell nuclei were detected by counter-staining with 4′, 6-diamidino-2-phenylindole dihydrochloride (DAPI) (Sigma).

[9] = test system: binding of LPS-binding protein (LBP) to LPS; experiment: Competition of gelsolin with 125I-LBP for LPS-coated wells (solid phase); conditions: nanomolar concentrations of gelsolin
Experimental: To determine competition between gelsolin and LPS-binding proteins (LPB), a high affinity carrier for LPS, the LPS-coated wells (1 nmole/per well of LPS Re-595 from Salmonella minnesota) were saturated by incubation (2 hours, 20° C.) with […] 2 mg/ml in RPMI), washed and preincubated with different amount of recombinant human gelsolin (0-2 ng/well) in […] (0.5 mg/ml) containing RPMI. RPMI medium refers to Roswell Park Memorial Institute medium, typically used to culture human lymphoid cells. Then, 10 μl of ^125I-LPB (6×10^4 cpm) were added, and the plates were incubated for 90 minutes at 37° C., then washed six times with RPMI. After that, the bound radioactivity was measured.

rat primary astrocytes = experiment: LPS-induced actin cytoskeleton disassembly, phalloidin staining, astrocytes; assay type: cell-based; conditions: 2 μM (10 μg/ml) LPS preincubated with 1.8 μM (0.16 mg/ml) gelsolin, 10 min, listed as plasma gelsolin
Source text: as §2
Rat primary astrocytes were obtained from prenatal rats and maintained for 14 days in culture before use. Embryos (E17-E19) were removed by caesarian section from a Sprague-Dawley rat and the hippocampi were surgically removed. The tissue was digested in trypsin/DNAse at 37° C., centrifuged (1000×5 min) and filtered to derive suspensions from each pup. […]
as §3

actin-binding proteins = conditions: Yamamura et al., FEBS Lett. 1996; cited from earlier work
gelsolin [10] = biological target: T3, gelsolin (Homo sapiens, UniProt P06396); experiment: Actin severing activity of gelsolin (50 nM) with LTA or lysolipids; assay type: biochemical
T3 sequence (P06396 28-782): as above
Experimental: The tested gelsolin concentration was 50 nM; LTA ranged from 0-50 μM; Pyrene-F-actin was 0.3 μM. Recording changes in fluorescently-labeled (rhodamine B-labeled) gelsolin peptide PBP10 (10 μM), indicates a specific interaction between gelsolin and LTA.

gelsolin [11] = biological target: T3, gelsolin; conditions: Goetzl et al. 2000; cited from earlier work

Compound: phosphatidylserine [PS]
induction of pyrene excimer formation (emission 480 nm) [1]: had no effect
effect on absorbance of gelsolin [2]: had no effect
inhibitory effect on severing activity of purified gelsolin [3]: had no effect; also recorded: no inhibitory effect; also recorded: have no effect

Compound: gelsolin
survival compared to saline or BSA controls ([4]; 8 mg s.c. immediately after LPS and at 24, 48, 72 hours, listed as plasma gelsolin): rescues the endotoxemic mice; also recorded: markedly improved survival
condition of surviving mice ([4]; Day 7 / after 1 week): complete recovery
plasma gelsolin level restored in LPS-treated animals ([4]; s.c. administration): 200 µg/mL
direct binding of 125I-LBP to gelsolin-coated surfaces [5]: did not bind to gelsolin-coated surfaces; also recorded: does not interact directly with the LBP; also recorded: does not bind to gelsolin-coated surfaces
effect on neutrophil adhesion to LTA-stimulated HAEC [6]: inhibit neutrophil adhesion; also recorded: reduced to near baseline values; also recorded: prevents LTA activation of endothelial cells
effect of gelsolin-preincubated LPS on actin cytoskeleton [7]: no discernable effect on the actin cytoskeletons; also recorded: prevented LPS-induced actin cytoskeleton disassembly
blocking of LPS-induced NF-κB translocation [8]: completely blocked; also recorded: blocked LPS-induced translocation; also recorded: blocked by pre-incubation with gelsolin
inhibition of 125I-LBP binding to LPS coated wells [9]: 69±6%
effect of gelsolin-preincubated LPS on actin cytoskeleton (rat primary astrocytes): no discernable effect on the actin cytoskeletons; also recorded: prevented LPS-induced actin cytoskeleton disassembly

inhibition of gelsolin at higher lipid concentrations (gelsolin [10]; above 1 μM): abrupt drop-off of activity
Compound: CCCCCCCCCCCCC/C=C/[C@@H](O)[C@@H](N)COP(=O)(O)O [S1P, Sphingosine-1-phosphate]
maximal dissociation (actin-binding proteins): 10%
inhibition of gelsolin by lysolipids (gelsolin [10]; lipid below 1 μM): at least as strongly as lysophosphatidic acid (LPA); also recorded: also inhibit gelsolin; also recorded: as least as strongly as LPA does
binding of S1P by gelsolin (gelsolin [11]): did not bind
